Data from patent US7235267B1, “Brain cell or nerve cell-protecting agents comprising medicinal ginseng” (priority 1999, dated 2007).
Read-outs that look alike come from different tables or passages of the source.

How the values were obtained:
[1] = tested on: Wistar rats with spinal cord injury; assay: Spinal cord injury model (20 g compression on lower thoracic cord for 20 minutes); type: in vivo, rat
Text: The present inventors have investigated the effects of repetitive or continuous intravenous administration of ginsenoside Rb1 using rats with spinal cord injury and the effects were compared with those of repetitive or continuous intravenous administration of a crude saponin fraction of medicinal ginseng. If pressure is loaded on certain spinal segments such as the lower thoracic cord, not only nerve cells (neurons) in the gray matter of the same region but also fiber tracts or pathways in the white matter of the same region are damaged. The damages to the fiber tracts or pathways of the white matter are further developed to the distal portions (caudal portions) as well as causing the secondary degeneration of the origins of the fiber tract or pathways, namely the upper nerve cell bodies (i.e. origins) which project fibers (nerve processes) to the fiber tracts or pathways. As a result, the damages to the fiber tracts or pathways of the white matter in the lower thoracic cord, which received compression loading, induce the secondary degeneration of the origins (nerve cell bodies) sending fibers (also termed nerve processes or axons) to the fiber tracts or pathways as well as the secondary degeneration of fiber tracts located distal to the lower thoracic cord (i.e. lumbar cord and sacral cord) to cause paraplegia of both limbs. Further, since the innervation from the brain regions proximal to the lumbar cord and sacral cord is cut off due to damage to the lower thoracic cord, the secondary degeneration of nerve cells in the gray matters of the lumbar cord and sacral cord is further induced, as a result, paraplegia of the limbs can not be recovered. For that model of the spinal cord injury, the present inventors have used male Wistar rats (body weight about 300 g) loaded with 20 g of compression on the lower thoracic cord for 20 minutes.
Under inhalation anesthesia by a mixture of nitrous oxide and halothane, the rats were loaded with 20 g of compression on the lower thoracic cord for 20 minutes. After more than 30 minutes passed, ginsenoside Rb1 dissolved in physiological saline was injected once into the left femoral vein (12 μg or 60 μg), thereafter continuous or repetitive intravenous administration of ginsenoside Rb1 was performed for 7 days by using an Alza osmotic minipump (12 μg/day or 60 μ/day). Control animals and sham-operated animals were administered with the same amount of physiological saline (vehicle) alone. The open field locomotor scores [Basso, Bettie and Bresnakan (BBB) scores] were measured in each animal before loading spinal cord injury, on the day of spinal cord injury and from 1st day to 7th day after the spinal cord injury for use as an index of motor functions (Basso D. M. et al., J. Neurotrauma, 13, 343-359, 1996). BBB scores of the sham-operated rats (normal rats) were 20-21.
Under inhalation anesthesia by a mixture of nitrous oxide and halothane, the rats were loaded with 20 g of compression on the lower thoracic cord for 20 minutes. More than 30 minutes later, the crude saponin fraction dissolved in physiological saline was infused once into the left femoral vein (870 μg), thereafter continuous intravenous administration of the crude saponin fraction was performed for 7 days by using an Alza osmotic minipump (870 μg/day). Control animals with spinal cord injuries were administered with the same amount of physiological saline (vehicle) alone. […] These figures are photographs in place of drawings.
Under inhalation anesthesia by a mixture of nitrous oxide and halothane, wistar rats (body weight about 300 g) were loaded with 20 g of compression on the lower thoracic cord for 20 minutes. After they were awakened from anesthesia, the rats with paraplegia in both hindlimbs were allowed to stay for 1 hour and 40 minutes in the cage. […]

[2] = tested on: SH-SP rats with MCA permanent occlusion; conditions: cited from earlier work
[3] = intravenously administered small amount (prior application); cited from earlier work
Bcl-xL = Bcl-xL expression in primary cultured myocardial cells (RT-PCR, immunoblotting); type: cell-based, rat
Experimental: Next, we have studied effect of ginsenoside Rb1 on the heart. For that purpose, for example, changes in the expression of Bcl-xL mRNA and Bcl-xL protein were examined with RT-PCR and immunoblotting, when primary cultured myocardial cells were cultured for 18 hours in the presence of ginsenoside Rb1. Myocardial cells were prepared as follows. The hearts of fetal rats at gestational day 17 were treated with trypsin EDTA to prepare dispersed cells, which were cultured for several days in DMEM containing 10% FCS (fetal calf serum). In RT-PCR, β-actin mRNA was used as the internal standard. In the immunoblotting, troponin T, a striated muscle-specific protein, was used as the internal standard, and expression of Bcl-xL protein was examined. In the immunoblotting, the same experiments were repeated 10 times by using different lots of myocardial cells, and Bcl-xL immunoreaction-positive bands were analyzed by densitometry and statistical analysis was performed.
Subsequently we studied the effectiveness of ginsenoside Rb1 on heart. For that purpose, for example, changes in the expressions of Bcl-xL mRNA and Bcl-xL protein were examined with the use of RT-PCR and immunoblotting, when the primary cultured myocardial cells were cultured for 18 hours in the presence of ginsenoside Rb1. Myocardial cells were prepared as follows. The hearts of fetal rats at gestational day 17 were treated with trypsin EDTA to prepare the dispersed cells, which were cultured for several days in DMEM containing 10% FCS (fetal calf serum). In RT-PCR, β-actin mRNA was used as the internal standard. In the immunoblotting, troponin T, a striated muscle-specific protein, was used as the internal standard, and expression of Bcl-xL protein was examined. In the immunoblotting, the same experiments were repeated 10 times by using different lots of myocardial cells, and Bcl-xL immunoreaction-positive bands were analyzed by densitometry and statistical analysis was performed.

[4] = intracerebroventricular administration; cited from earlier work
[5] = low concentrations or low doses; cited from earlier work
[6] = tested on: rats with ischemia/reperfusion or permanent occlusion of the middle cerebral artery; conditions: cited from earlier work
cultured nerve cells = conditions: cited from earlier work

## CC(C)=CCC[C@](C)(O[C@@H]1O[C@H](CO[C@@H]2O[C@H](CO)[C@@H](O)[C@H](O)[C@H]2O)[C@@H](O)[C@H](O)[C@H]1O)[C@H]1CC[C@]2(C)[C@@H]1[C@H](O)C[C@@H]1[C@@]3(C)CC[C@H](O[C@@H]4O[C@H](CO)[C@@H](O)[C@H](O)[C@H]4O[C@@H]4O[C@H](CO)[C@@H](O)[C@H](O)[C@H]4O)C(C)(C)[C@@H]3CC[C@]12C [ginsenoside Rb1]
[1]; compared with rats administered with physiological saline
  healing of the operative dorsal wounds / ill effects: no such ill effects
[1]; ginsenoside Rb1 intravenous 12 μg/day and 60 μg/day
  motor abilities (BBB scores) at the 7th day after spinal cord injury: significantly ameliorated in a dose-dependent manner
[1]; ginsenoside Rb1 intravenous 60 μg/day starting 2 hours after spinal cord injury
  bedsore (decubitus): hardly observed
[1]; ginsenoside Rb1 intravenous 60 μg/day starting 2 hours after spinal cord injury, from 3-4 days after onset
  paraplegia of both hindlimbs: gradually ameliorated
[1]; ginsenoside Rb1 intravenous 60 μg/day starting more than 30 minutes after compression, 1-2 days later
  paraplegia of both hindlimbs: significantly ameliorated
[2]; ginsenoside Rb1 intracerebroventricular infusion immediately after permanent MCA occlusion
  ischemia-induced place navigation disability: ameliorated
[2]; ginsenoside Rb1 repetitive or continuous intravenous 6 μg or 60 μg/day
  ischemia-induced place navigation disability: significantly ameliorated
[3]
  transfer into the brain and nervous systems: transferred quickly
Bcl-xL; 1 fg/ml to 10^4 fg/ml, 18 hours, n=10
  expression of Bcl-xL protein in myocardial cells: significantly enhanced
Bcl-xL; 1 fg/ml-100 fg/ml, 18 hours
  expression of Bcl-xL mRNA in myocardial cells: obviously increased
Bcl-xL; FIG. 25
  concentrations increasing Bcl-xL mRNA in myocardial cells: 1 to 100 fg/mL
[4]
  brain temperature, cerebral blood flow or blood pressure: no effects
[5]
  bleeding tendency: does not promote
[6]; intravenous 10 mg/kg before permanent occlusion of the middle cerebral artery
  effect on infarction: absolutely no effect
[6]; intravenous 40 mg/kg before permanent occlusion of the middle cerebral artery
  reduction of size of the infarction vs control: about 14%
[6]; single intravenous 10-40 mg/kg after the reperfusion
  reduction of infarction size vs control: 12%-35%
[6]; single intravenous 10-40 mg/kg before ischemia, ischemia/reperfusion model
  reduction of infarction size vs control: 20%-49%
Cultured nerve cells; 1 fg/ml and 100 fg/ml (tested 1, 100 and 10^5 fg/ml)
  suppression of apoptosis-like nerve cell death and Bcl-xL protein expression in nerve cells: significant effects
Cultured nerve cells; 100 fg/ml
  formation of lipid peroxides: slight suppressive action
Cultured nerve cells; Kim et al. 1998, Liu and Zhang 1995
  concentrations reducing neurotoxicity of glutamic acid: 0.11 to 11 µg/mL
Cultured nerve cells; Tanaka et al. 1998
  concentration that may protect against apoptosis-like death: 500 µM
Cultured nerve cells; added in advance to the culture medium
  concentrations reducing necrosis of nerve cells caused by ferrous sulfate: 0.1 to 100 fg/mL
Cultured nerve cells; high concentration of ginsenoside Rb1, inventors' cell culture experiments
  nerve cell death: did not suppress
Cultured nerve cells; not treated with SNP
  metabolic activity of control cultured nerve cells: no effect
Cultured nerve cells; prior application
  concentrations enhancing expression of Bcl-xL in cultured neurons: 1˜100 fg/ml
Cultured nerve cells; sodium nitroprusside treatment (prior application)
  extracellular concentrations protecting nerve cells injured by SNP: 1 to 100 fg/mL
